Test results reported in the NIST ThermoML archive (doi:10.1021/je500381c).
Numbers after ± are expanded uncertainties.

Assay: xn = mol fraction of the nth substance listed
Details: for mass density / viscosity: 100 kPa, Liquid; for mass density: Vibrating tube method; for surface tension liquid-gas: Drop volume

CC12CC3CC(C)(C1)CC(C)(C3)C2 [1,3,5-trimethyladamantane] + OCC1CCCCC1
Details | mass density [kg/m3] | surface tension liquid-gas [mN/m] | viscosity [mPa·s]
293.15 K, x2 = 0 | 887.48 ± 0.13 | – | 2.601 ± 0.041
293.15 K, x2 = 0.1 | 889.7 ± 0.13 | – | 2.872 ± 0.045
293.15 K, x2 = 0.2001 | 892.4 ± 0.13 | – | 3.328 ± 0.052
293.15 K, x2 = 0.2997 | 895.41 ± 0.13 | – | 3.955 ± 0.062
293.15 K, x2 = 0.4 | 898.82 ± 0.13 | – | 4.859 ± 0.076
293.15 K, x2 = 0.4994 | 902.62 ± 0.13 | – | 6.211 ± 0.097
293.15 K, x2 = 0.5991 | 906.88 ± 0.13 | – | 8.288 ± 0.13
293.15 K, x2 = 0.7 | 911.64 ± 0.13 | – | 11.51 ± 0.18
293.15 K, x2 = 0.801 | 917.1 ± 0.13 | – | 16.66 ± 0.26
293.15 K, x2 = 0.8927 | 922.52 ± 0.13 | – | 24.62 ± 0.39
298.15 K, x2 = 0 | 883.99 ± 0.13 | 26.17 ± 0.15 | 2.338 ± 0.037
298.15 K, x2 = 0.1 | 886.13 ± 0.13 | 26.18 ± 0.15 | 2.55 ± 0.04
298.15 K, x2 = 0.2001 | 888.82 ± 0.13 | 26.4 ± 0.16 | 2.939 ± 0.046
298.15 K, x2 = 0.2997 | 891.83 ± 0.13 | 26.77 ± 0.16 | 3.455 ± 0.054
298.15 K, x2 = 0.4 | 895.23 ± 0.13 | 27.22 ± 0.16 | 4.184 ± 0.065
298.15 K, x2 = 0.4994 | 899.02 ± 0.13 | 27.65 ± 0.16 | 5.256 ± 0.082
298.15 K, x2 = 0.5991 | 903.29 ± 0.13 | 28.16 ± 0.16 | 6.866 ± 0.11
298.15 K, x2 = 0.7 | 908.13 ± 0.13 | 28.88 ± 0.16 | 9.343 ± 0.15
298.15 K, x2 = 0.801 | 913.53 ± 0.13 | 29.74 ± 0.17 | 13.22 ± 0.21
298.15 K, x2 = 0.8927 | 918.95 ± 0.13 | 30.63 ± 0.17 | 19.19 ± 0.3
303.15 K, x2 = 0 | 880.47 ± 0.13 | – | 2.118 ± 0.033
303.15 K, x2 = 0.1 | 882.54 ± 0.13 | – | 2.297 ± 0.036
303.15 K, x2 = 0.2001 | 885.21 ± 0.13 | – | 2.615 ± 0.041
303.15 K, x2 = 0.2997 | 888.21 ± 0.13 | – | 3.041 ± 0.048
303.15 K, x2 = 0.4 | 891.61 ± 0.13 | – | 3.639 ± 0.057
303.15 K, x2 = 0.4994 | 895.4 ± 0.13 | – | 4.492 ± 0.07
303.15 K, x2 = 0.5991 | 899.66 ± 0.13 | – | 5.76 ± 0.09
303.15 K, x2 = 0.7 | 904.52 ± 0.13 | – | 7.681 ± 0.12
303.15 K, x2 = 0.801 | 909.91 ± 0.13 | – | 10.65 ± 0.17
303.15 K, x2 = 0.8927 | 915.34 ± 0.13 | – | 15.28 ± 0.24
308.15 K, x2 = 0 | 876.94 ± 0.13 | – | 1.93 ± 0.03
308.15 K, x2 = 0.1 | 878.93 ± 0.13 | – | 2.072 ± 0.032
308.15 K, x2 = 0.2001 | 881.59 ± 0.13 | – | 2.336 ± 0.037
308.15 K, x2 = 0.2997 | 884.59 ± 0.13 | – | 2.694 ± 0.042
308.15 K, x2 = 0.4 | 887.97 ± 0.13 | – | 3.187 ± 0.05
308.15 K, x2 = 0.4994 | 891.76 ± 0.13 | – | 3.876 ± 0.061
308.15 K, x2 = 0.5991 | 896.02 ± 0.13 | – | 4.884 ± 0.076
308.15 K, x2 = 0.7 | 900.87 ± 0.13 | – | 6.386 ± 0.1
308.15 K, x2 = 0.801 | 906.27 ± 0.13 | – | 8.659 ± 0.14
308.15 K, x2 = 0.8927 | 911.73 ± 0.13 | – | 12.26 ± 0.19
313.15 K, x2 = 0 | 873.4 ± 0.13 | – | 1.765 ± 0.028
313.15 K, x2 = 0.1 | 875.32 ± 0.13 | – | 1.878 ± 0.029
313.15 K, x2 = 0.2001 | 877.95 ± 0.13 | – | 2.1 ± 0.033
313.15 K, x2 = 0.2997 | 880.94 ± 0.13 | – | 2.402 ± 0.038
313.15 K, x2 = 0.4 | 884.32 ± 0.13 | – | 2.811 ± 0.044
313.15 K, x2 = 0.4994 | 888.09 ± 0.13 | – | 3.371 ± 0.053
313.15 K, x2 = 0.5991 | 892.35 ± 0.13 | – | 4.181 ± 0.065
313.15 K, x2 = 0.7 | 897.2 ± 0.13 | – | 5.366 ± 0.084
313.15 K, x2 = 0.801 | 902.61 ± 0.13 | – | 7.126 ± 0.11
313.15 K, x2 = 0.8927 | 908.08 ± 0.13 | – | 9.952 ± 0.16
318.15 K, x2 = 0 | 869.86 ± 0.13 | – | 1.621 ± 0.025
318.15 K, x2 = 0.1 | 871.69 ± 0.13 | – | 1.71 ± 0.027
318.15 K, x2 = 0.2001 | 874.3 ± 0.13 | – | 1.898 ± 0.03
318.15 K, x2 = 0.2997 | 877.27 ± 0.13 | – | 2.151 ± 0.034
318.15 K, x2 = 0.4 | 880.63 ± 0.13 | – | 2.494 ± 0.039
318.15 K, x2 = 0.4994 | 884.4 ± 0.13 | – | 2.954 ± 0.046
318.15 K, x2 = 0.5991 | 888.66 ± 0.13 | – | 3.609 ± 0.057
318.15 K, x2 = 0.7 | 893.49 ± 0.13 | – | 4.552 ± 0.071
318.15 K, x2 = 0.801 | 898.9 ± 0.13 | – | 5.932 ± 0.093
318.15 K, x2 = 0.8927 | 904.4 ± 0.13 | – | 8.189 ± 0.13
323.15 K, x2 = 0 | 866.31 ± 0.13 | – | 1.494 ± 0.024
323.15 K, x2 = 0.1 | 868.04 ± 0.13 | – | 1.564 ± 0.025
323.15 K, x2 = 0.2001 | 870.63 ± 0.13 | – | 1.723 ± 0.027
323.15 K, x2 = 0.2997 | 873.58 ± 0.13 | – | 1.936 ± 0.03
323.15 K, x2 = 0.4 | 876.93 ± 0.13 | – | 2.224 ± 0.035
323.15 K, x2 = 0.4994 | 880.69 ± 0.13 | – | 2.604 ± 0.041
323.15 K, x2 = 0.5991 | 884.94 ± 0.13 | – | 3.14 ± 0.049
323.15 K, x2 = 0.7 | 889.76 ± 0.13 | – | 3.899 ± 0.061
323.15 K, x2 = 0.801 | 895.17 ± 0.13 | – | 4.99 ± 0.078
323.15 K, x2 = 0.8927 | 900.68 ± 0.13 | – | 6.785 ± 0.11
328.15 K, x2 = 0 | 862.76 ± 0.13 | – | 1.384 ± 0.022
328.15 K, x2 = 0.1 | 864.39 ± 0.14 | – | 1.435 ± 0.023
328.15 K, x2 = 0.2001 | 866.94 ± 0.14 | – | 1.569 ± 0.025
328.15 K, x2 = 0.2997 | 869.86 ± 0.14 | – | 1.752 ± 0.027
328.15 K, x2 = 0.4 | 873.2 ± 0.14 | – | 1.994 ± 0.031
328.15 K, x2 = 0.4994 | 876.94 ± 0.14 | – | 2.311 ± 0.036
328.15 K, x2 = 0.5991 | 881.18 ± 0.13 | – | 2.751 ± 0.043
328.15 K, x2 = 0.7 | 885.99 ± 0.13 | – | 3.367 ± 0.053
328.15 K, x2 = 0.801 | 891.4 ± 0.13 | – | 4.238 ± 0.066
328.15 K, x2 = 0.8927 | 896.92 ± 0.13 | – | 5.705 ± 0.089
333.15 K, x2 = 0 | 859.2 ± 0.14 | – | 1.284 ± 0.021
333.15 K, x2 = 0.1 | 860.72 ± 0.14 | – | 1.322 ± 0.021
333.15 K, x2 = 0.2001 | 863.23 ± 0.14 | – | 1.436 ± 0.023
333.15 K, x2 = 0.2997 | 866.13 ± 0.14 | – | 1.59 ± 0.025
333.15 K, x2 = 0.4 | 869.45 ± 0.14 | – | 1.797 ± 0.028
333.15 K, x2 = 0.4994 | 873.17 ± 0.14 | – | 2.061 ± 0.032
333.15 K, x2 = 0.5991 | 877.4 ± 0.14 | – | 2.426 ± 0.038
333.15 K, x2 = 0.7 | 882.2 ± 0.14 | – | 2.93 ± 0.046
333.15 K, x2 = 0.801 | 887.6 ± 0.14 | – | 3.632 ± 0.057
333.15 K, x2 = 0.8927 | 893.12 ± 0.13 | – | 4.772 ± 0.075
